Experimental data reported in patent US10919916B2, “Boron-containing small molecules” (Bill & Melinda Gates Foundation, priority 2016, dated 2021).
≈ marks a conversion by molar mass, not a printed value.

Assays:
Format in all cases: cell-based
[1] = test system: Staphylococcus aureus, MRSA (ATCC 33591); experiment: Antibacterial MIC assay (microbroth dilution, CLSI); details: microbroth dilution, cation-adjusted Mueller-Hinton broth, 35° C. for 16-20 hours, read-out: MIC Staphylococcus aureus, MRSA (ATCC 33591)
Method in brief: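 Microbroth dilution per CLSI M07-A10/M100-S25 in cation-adjusted Mueller-Hinton broth, with 3% lysed horse blood added for S. pneumoniae. Inoculum from a 0.5 McFarland direct colony suspension, diluted to 5×10^5 CFU/mL in the well. Compounds were 2-fold serially diluted; MIC read against a growth control.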

[2] = test system: Streptococcus pneumoniae (ATCC 49619); experiment: as above; details: ATCC49619, microbroth dilution, 3% lysed horse blood, 35° C. for 16-20 hours, read-out: MIC Streptococcus pneumoniae (ATCC 49619)
Method in brief: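 CLSI broth microdilution: 2-fold compound dilutions in cation-adjusted Mueller-Hinton broth supplemented with 3% lysed horse blood for S. pneumoniae, inoculum 5×10^5 CFU/mL from a 0.5 McFarland direct colony suspension, with growth control.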

[3] = test system: Wolbachia pipientis in C6/36 cell line; experiment: Anti-Wolbachia high-content assay; details: C6/36 (wAlbB) cells, 7 days at 26° C., 50% reduction of Wolbachia, read-out: EC50 Wolbachia pipientis in C6/36 cell line
Procedure: After 15 minutes, all media was removed from each well and fresh media (no stain) was added. Imaging of each well was accomplished using a Perkin Elmer Operetta high-content imaging system. Five fields per well were imaged using a confocal 60× objective with the Fluorescein filter (excitation filter: 460-490 nm; emission filter: 500-550 nm). Images were analyzed using the Perkin Elmer Harmony software to score each intact cell on the basis of texture complexity of the cytoplasm. Full details can be found in: […]. et al, J. Biomol.

| Compound | MIC [1] [µg/mL] | MIC [2] [µg/mL] | EC50 [3] [nM] |
| --- | --- | --- | --- |
| C=C[C@]1(C)C[C@@H](OC(=O)COc2ccc3c(c2)B(O)N(C(=O)OC)N=C3)[C@]2(C)[C@H](C)CC[C@]3(C[C@H](F)C(=O)[C@H]32)[C@@H](C)[C@@H]1O [Compound 92, Methyl 7-(2-(((2S,3aR,4R,5R,7S,8S,9R,9aS,12R)-2-fluoro-8-hydroxy-4,7,9,12-tetramethyl-3-oxo-7-vinyldecahydro-4,9a-propanocyclopenta[8]annulen-5-yl)oxy)-2-oxoethoxy)-1-hydroxybenzo[d][1,2,3]diazaborinine-2(1H)-carboxylate] | < 0.25 | 0.5 to 2 (≈ 0.835 to 3.34 µM) | 3 |
| C=C[C@]1(C)C[C@@H](OC(=O)COc2ccc3c(c2)B(O)N(C(C)=O)N=C3)[C@]2(C)[C@H](C)CC[C@]3(C[C@H](O)C(=O)[C@H]32)[C@@H](C)[C@@H]1O [Compound 86, (2S,3aR,4R,5R,7S,8S,9R,9aS,12R)-2,8-dihydroxy-4,7,9,12-tetramethyl-3-oxo-7-vinyldecahydro-4,9a-propanocyclopenta[8]annulen-5-yl 2-((2-acetyl-1-hydroxy-1,2-dihydrobenzo[d][1,2,3]diazaborinin-7-yl)oxy)acetate] | < 0.25 | 0.5 to 2 (≈ 0.861 to 3.45 µM) | 1 |
| C=C[C@]1(C)C[C@@H](OC(=O)COc2ccc3c(c2F)B(O)N(S(C)(=O)=O)N=C3)[C@]2(C)[C@H](C)CC[C@]3(C[C@H](F)C(=O)[C@H]32)[C@@H](C)[C@@H]1O [Compound 76, (2S,3aR,4R,5R,7S,8S,9R,9aS,12R)-2-fluoro-8-hydroxy-4,7,9,12-tetramethyl-3-oxo-7-vinyldecahydro-4,9a-propanocyclopenta[8]annulen-5-yl 2-((8-fluoro-1-hydroxy-2-(methylsulfonyl)-1,2-dihydrobenzo[d][1,2,3]diazaborinin-7-yl)oxy)acetate] | 0.5 to 2 (≈ 0.786 to 3.14 µM) | 0.5 to 2 (≈ 0.786 to 3.14 µM) | > 1000 |
| C=C[C@]1(C)C[C@@H](OC(=O)COc2ccc3c(c2)B(O)N(S(C)(=O)=O)N=C3)[C@]2(C)[C@H](C)CC[C@]3(C[C@H](O)C(=O)[C@H]32)[C@@H](C)[C@@H]1O [Compound 78, (2S,3aR,4R,5R,7S,8S,9R,9aS,12R)-2,8-dihydroxy-4,7,9,12-tetramethyl-3-oxo-7-vinyldecahydro-4,9a-propanocyclopenta[8]annulen-5-yl 2-((1-hydroxy-2-(methylsulfonyl)-1,2-dihydrobenzo[d][1,2,3]diazaborinin-7-yl)oxy)acetate] | 0.5 to 2 (≈ 0.811 to 3.24 µM) | 0.5 to 2 (≈ 0.811 to 3.24 µM) | 13 |
| C=C[C@]1(C)C[C@@H](OC(=O)COc2ccc3c(c2)B(O)OC3CC(=O)OC)[C@]2(C)[C@H](C)CC[C@]3(CCC(=O)[C@H]32)[C@@H](C)[C@@H]1O (stereo partly drawn) [Compound 26, (3aR,4R,5R,7S,8S,9R,9aS,12R)-8-hydroxy-4,7,9,12-tetramethyl-3-oxo-7-vinyldecahydro-4,9a-propanocyclopenta[8]annulen-5-yl 2-((1-hydroxy-3-(2-methoxy-2-oxoethyl)-1,3-dihydrobenzo[c][1,2]oxaborol-6-yl)oxy)acetate] | < 0.25 | 0.5 to 2 (≈ 0.858 to 3.43 µM) | > 1000 |
| C=C[C@]1(C)C[C@@H](OC(=O)COc2ccc3c(c2)B(O)N(C(C)=O)N=C3)[C@]2(C)[C@H](C)CC[C@]3(C[C@H](F)C(=O)[C@H]32)[C@@H](C)[C@@H]1O [Compound 88, (2S,3aR,4R,5R,7S,8S,9R,9aS,12R)-2-fluoro-8-hydroxy-4,7,9,12-tetramethyl-3-oxo-7-vinyldecahydro-4,9a-propanocyclopenta[8]annulen-5-yl 2-((2-acetyl-1-hydroxy-1,2-dihydrobenzo[d][1,2,3]diazaborinin-7-yl)oxy)acetate] | < 0.25 | 0.5 to 2 (≈ 0.858 to 3.43 µM) | 4 |
| C=C[C@]1(C)C[C@@H](OC(=O)COc2ccc3c(c2)B(O)N(C)N=C3)[C@]2(C)[C@H](C)CC[C@]3(C[C@H](O)C(=O)[C@H]32)[C@@H](C)[C@@H]1O [Compound 82, (2S,3aR,4R,5R,7S,8S,9R,9aS,12R)-2,8-dihydroxy-4,7,9,12-tetramethyl-3-oxo-7-vinyldecahydro-4,9a-propanocyclopenta[8]annulen-5-yl 2-((1-hydroxy-2-methyl-1,2-dihydrobenzo[d][1,2,3]diazaborinin-7-yl)oxy)acetate] | 0.5 to 2 (≈ 0.905 to 3.62 µM) | < 0.25 | 36 |
| C=C[C@]1(C)C[C@@H](OC(=O)COc2cnc3c(c2)B(O)OC3)[C@]2(C)[C@H](C)CC[C@]3(CCC(=O)[C@H]32)[C@@H](C)[C@@H]1O [Compound 101, (3aR,4R,5R,7S,8S,9R,9aS,12R)-8-hydroxy-4,7,9,12-tetramethyl-3-oxo-7-vinyldecahydro-4,9a-propanocyclopenta[8]annulen-5-yl 2-((1-hydroxy-1,3-dihydro-[1,2]oxaborolo[4,3-b]pyridin-6-yl)oxy)acetate] | 0.5 to 2 (≈ 0.978 to 3.91 µM) | 4 to 32 (≈ 7.82 to 62.6 µM) | > 1000 |
| C=C[C@]1(C)C[C@@H](OC(=O)COc2ccc3c(c2)B(O)N(C(=O)OC)N=C3)[C@]2(C)[C@H](C)CC[C@]3(C[C@H](O)C(=O)[C@H]32)[C@@H](C)[C@@H]1O [Compound 90, Methyl 7-(2-(((2S,3aR,4R,5R,7S,8S,9R,9aS,12R)-2,8-dihydroxy-4,7,9,12-tetramethyl-3-oxo-7-vinyldecahydro-4,9a-propanocyclopenta[8]annulen-5-yl)oxy)-2-oxoethoxy)-1-hydroxybenzo[d][1,2,3]diazaborinine-2(1H)-carboxylate] | < 0.25 | 0.5 to 2 (≈ 0.838 to 3.35 µM) | 3 |
| C=C[C@]1(C)C[C@@H](OC(=O)COc2ccc3c(c2)B(O)N(C(=O)OC(C)(C)C)N=C3)[C@]2(C)[C@H](C)CC[C@]3(C[C@H](F)C(=O)[C@H]32)[C@@H](C)[C@@H]1O [Compound 73, tert-butyl 7-(2-(((2S,3aR,4R,5R,7S,8S,9R,9aS,12R)-2-fluoro-8-hydroxy-4,7,9,12-tetramethyl-3-oxo-7-vinyldecahydro-4,9a-propanocyclopenta[8]annulen-5-yl)oxy)-2-oxoethoxy)-1-hydroxybenzo[d][1,2,3]diazaborinine-2(1H)-carboxylate] | < 0.25 | < 0.25 | 1 |
| C=C[C@]1(C)C[C@@H](OC(=O)COc2ccc3c(c2)B(O)OC3)[C@]2(C)[C@H](C)CC[C@]3(C[C@H](O)C(=O)[C@H]32)[C@@H](C)[C@@H]1O [Compound 35, (2S,3aR,4R,5R,7S,8S,9R,9aS,12R)-2,8-dihydroxy-4,7,9,12-tetramethyl-3-oxo-7-vinyldecahydro-4,9a-propanocyclopenta[8]annulen-5-yl 2-((1-hydroxy-1,3-dihydrobenzo[c][1,2]oxaborol-6-yl)oxy)acetate] | < 0.25 | 0.5 to 2 (≈ 0.95 to 3.8 µM) | 30 |
| C=C[C@]1(C)C[C@@H](OC(=O)COc2ccc3c(c2)B(O)OC3CNC(C)=O)[C@]2(C)[C@H](C)CC[C@]3(CCC(=O)[C@H]32)[C@@H](C)[C@@H]1O (stereo partly drawn) [Compound 22, (3aR,4R,5R,7S,8S,9R,9aS,12R)-8-hydroxy-4,7,9,12-tetramethyl-3-oxo-7-vinyldecahydro-4,9a-propanocyclopenta[8]annulen-5-yl 2-((3-(acetamidomethyl)-1-hydroxy-1,3-dihydrobenzo[c][1,2]oxaborol-6-yl)oxy)acetate] | 0.5 to 2 (≈ 0.86 to 3.44 µM) | 0.5 to 2 (≈ 0.86 to 3.44 µM) | > 1000 |
| C=C[C@]1(C)C[C@@H](OC(=O)CNc2cnc3c(c2)B(O)OC3)[C@]2(C)[C@H](C)CC[C@]3(CCC(=O)[C@H]32)[C@@H](C)[C@@H]1O [Compound 102, (3aR,4R,5R,7S,8S,9R,9aS,12R)-8-hydroxy-4,7,9,12-tetramethyl-3-oxo-7-vinyldecahydro-4,9a-propanocyclopenta[8]annulen-5-yl (1-hydroxy-1,3-dihydro-[1,2]oxaborolo[4,3-b]pyridin-6-yl)glycinate] | > 64 | > 64 | > 1000 |
| C=C[C@]1(C)C[C@@H](OC(=O)COc2ccc3c(c2)B(O)ON=C3)[C@]2(C)[C@H](C)CC[C@]3(C[C@H](O)C(=O)[C@H]32)[C@@H](C)[C@@H]1O [Compound 98, (2S,3aR,4R,5R,7S,8S,9R,9aS,12R)-2,8-dihydroxy-4,7,9,12-tetramethyl-3-oxo-7-vinyldecahydro-4,9a-propanocyclopenta[8]annulen-5-yl 2-((1-hydroxy-1H-benzo[d][1,2,6]oxazaborinin-7-yl)oxy)acetate] | 0.5 to 2 (≈ 0.927 to 3.71 µM) | 0.5 to 2 (≈ 0.927 to 3.71 µM) | 63 |
| C=C[C@]1(C)C[C@@H](OC(=O)COc2ccc(C3=CCOB3O)cc2)[C@]2(C)[C@H](C)CC[C@]3(CCC(=O)[C@H]32)[C@@H](C)[C@@H]1O [Compound 103, (3aR,4R,5R,7S,8S,9R,9aS,12R)-8-hydroxy-4,7,9,12-tetramethyl-3-oxo-7-vinyldecahydro-4,9a-propanocyclopenta[8]annulen-5-yl 2-(4-(2-hydroxy-2,5-dihydro-1,2-oxaborol-3-yl)phenoxy)acetate] | < 0.25 | < 0.25 | 419 |
